{"source": "patent US20040014794A1", "about": "“Use of hydroxypyridone-derivatives in wound healing” (priority 2002, published 2004)", "key": {"[1]": {"test_system": "HIF-1 target genes VEGF, glucose transporter-1 (Glut-1) and aldolase", "experiment": "Northern blotting of mRNA of endogenous HIF-1 target genes in HepG2 cells", "type": "cell-based, human", "conditions": "HepG2 cells treated for 24, 48 and 72 hours; control genes L28 and β-actin not induced", "method": "(§1) The HRCHO5 cells containing a stable transfected, HIF-1-dependent reporter gene were described previously (Wanner, R. M., et al. (2000), Epolones Induce Erythropoietin Expression Via Hypoxia-Inducible Factor-1α Activation, Blood 96, 1558-1565). The human HepG2 hepatoma cell line was obtained from American Type Culture Collection (ATCC numbers HB-8065). All cell lines were cultured in Dulbecco's modified Eagle's medium (DMEM, high glucose, Life Technologies) supplemented with 10% heat-inactivated FCS, 100 U/ml penicillin, 100 μg/ml streptomycin, 1× non-essential amino acids and 1 mM Na-pyruvate (all purchased from Life Technologies) in a humidified atmosphere containing 5% CO2 at 37° C. Oxygen partial pressures in the incubator (Forma Scientific, model 3131) were either 140 mm Hg (20% 02 v/v, normoxia) or 7 mm Hg (1% O2 v/v, hypoxia). Ciclopirox olamine (CPX), deferoxamine mesylate (DFX) and 2,2′-dipyridyl (DP) were purchased from Sigma. Stock solutions of CPX and DP were prepared in methanol at 0.5 M and 1 M, respectively. DFX was freshly dissolved at 10 mM into the cell culture medium."}, "[2]": {"test_system": "chicken chorioallantoic membrane (CAM)", "method": "CAM assays were performed as described by Olivo, M. et al. (A Comparative Study on The Effects of Tumor Necrosis Factor-A (TNF-α), Human Angiogenic Factor (h-AF) and Basic Fibroblast Growth Factor (bFGF) on the Chorioallantoic Membrane of the Chick Embryo, (1992) Anat. Rec. 234, 105-115). Briefly, fertilized eggs (purchased from Lohmann Tierzucht, Cuxhaven, Germany) were incubated at 37° C. in a humidified atmosphere. The eggs were kept on their sides and turned upside down twice a day. After 6 days, a small hole was drilled through the shell into the air sac (visualized using a strong light source) and a window of approximately 0.5 cm^2 was sawed into the side of the egg. The window was sealed with tape and the eggs were reincubated until day 9, when 6-cyclohexyl-1-hydroxy-4-methyl-2(1H)-pyridone 2-aminoethanol salt (CPX) was applied to the CAM using the Elvax® method (see Olivo, M. et al. above). Therefore, ethylene/vinyl acetate copolymer beads (Elvax®) 40L-03, DuPont, provided by C. H. Erbslöh KG, Krefeld, Germany) were extensively washed in ethanol and dried under reduced pressure. The Elvax® beads were then dissolved in methylene chloride at 10% (w/v) and CPX was added to the desired concentration. One drop (40 μL) of this solution was pipetted onto a siliconized glass slide and the solvent was allowed to evaporate completely. Using forceps, the Elvax® disc was carefully lifted from the glass slides and placed onto the CAM. At day 11, the window was enlarged and the CAM was documented using a digital camera (Olympus) coupled to an ocular of a stereomicroscope.\nTherefore, the chicken CAM at day 9 of development was overlaid with inert polymer discs containing various concentrations of CPX or solvent only."}, "NMRI mice": {"test_system": "NMRI mice", "experiment": "Mouse skin wound model (punch-through ear holes)", "conditions": "dermal cream containing 1% CPX, daily", "quoted_text": "Both ears of adult NMRI mice were wounded under anesthesia with 100 mg/kg ketamine (Narketan®) and 5 mg/kg xylazine (Rompun®) by punch-through holes of 2 mm diameter using a standard ear-punching tool. The ears were treated daily with a common skin cream containing (Batrafen®) or not containing 1% (w/v) CPX. One ear was treated with CPX and the other ear with the control cream. The amount of cream was sufficient to cover the hole and was equally distributed over the entire ear.\nPunch-through ear holes of 2 mm diameter (a widespread way of marking mice in animal facilities) were treated daily with a commercially available dermal cream containing 1% CPX on one ear and a CPX-free but otherwise identical common dermal cream on the other ear, respectively."}, "VEGF promoter": {"test_system": "VEGF promoter", "experiment": "VEGF promoter-driven luciferase reporter gene assay in transiently transfected HepG2 cells", "type": "cell-based, human", "conditions": "increasing concentrations of CPX for 24 hours", "method": "The HRCHO5 cells containing a stable transfected, HIF-1-dependent reporter gene were described previously (Wanner, R. M., et al. (2000), Epolones Induce Erythropoietin Expression Via Hypoxia-Inducible Factor-1α Activation, Blood 96, 1558-1565). The human HepG2 hepatoma cell line was obtained from American Type Culture Collection (ATCC numbers HB-8065). All cell lines were cultured in Dulbecco's modified Eagle's medium (DMEM, high glucose, Life Technologies) supplemented with 10% heat-inactivated FCS, 100 U/ml penicillin, 100 μg/ml streptomycin, 1× non-essential amino acids and 1 mM Na-pyruvate (all purchased from Life Technologies) in a humidified atmosphere containing 5% CO2 at 37° C. […]\nHepG2 cells were transiently electroporated with a VEGF promoter-driven luciferase construct as described previously (Ikeda, E., et al. (1995), Hypoxia-Induced Transcriptional Activation and Increased mRNA Stability of Vascular Endothelial Growth Factor in C6 Glioma Cells, J. Biol. Chem. 270, 19761-19766). Following stimulation, transiently and stable transfected cells were lysed in passive lysis buffer (Promega) and the luciferase activity was determined using a luciferase assay kit according to the manufacturer's instructions (Promega) in a 96-well luminometer (MicroLumat LB96P, EG&G Berthold). […] Absorbances at 570 nm were determined in a 96-well photometer (Rainbow, SLT Labsystems). […]"}, "isolated rat kidneys": {"test_system": "isolated rat kidneys", "experiment": "Isolated perfused rat kidney (ex vivo model)", "description": "Systemically administered DFX can induce ubiquitous HIF-1 stability and kidney-specific erythropoietin expression in mice (Wang, G. L., and Semenza, G. L. (1993), Desferrioxamine Induces Erythropoietin Gene Expression and Hypoxia-Inducible Factor 1 DNA-Binding Activity: Implications for Models of Hypoxia Signal Transduction, Blood 82, 3610-3615). Regarding a topical application of CPX as a HIF-1-inducing agent for therapeutic angiogenesis, it was important to test whether CPX could lead to a systemic induction of VEGF. […]"}, "[3]": {"test_system": "gram-positive and gram-negative bacteria", "conditions": "cited from earlier work"}, "rabbit skin": {"test_system": "rabbit skin", "conditions": "1% CPX solution applied on rabbit skin over 20 days; cited from earlier work"}, "HIF-1α protein": {"test_system": "HIF-1α protein", "experiment": "HIF-1α protein induction in HepG2 hepatoma cells", "type": "cell-based, human", "conditions": "for HIF-1α levels, combination with hypoxia: CPX plus hypoxia (1% O2)", "method": "as §1"}, "VEGF protein": {"test_system": "VEGF protein", "experiment": "Accumulation of VEGF protein in the supernatant of the HepG2 cell culture", "type": "cell-based, human", "conditions": "following 6 or 24 hours of treatment", "method": "as §1"}, "HIF-1": {"test_system": "HIF-1", "conditions": "systemically administered, mice; cited from earlier work"}, "[4]": {"conditions": "higher CPX concentrations (33 μM and 100 μM)"}, "[5]": {"conditions": "perfused 3 hours, normoxic, 0.1 μM to 100 μM"}}, "note": "Structures can show the parent of a compound that is named as a salt. Where two headings read alike, the source gives them in different places.", "data": [{"smiles": "Cc1cc(C2CCCCC2)n(O)c(=O)c1.NCCO", "note": "[CPX, 6-cyclohexyl-1-hydroxy-4-methyl-2(1H)-pyridone 2-aminoethanol salt]", "values": [{"measurement": "expression of VEGF mRNA", "setting": "[1]", "value": "induced"}, {"measurement": "expression of aldolase mRNA", "setting": "[1]", "value": "induced"}, {"measurement": "expression of glucose transporter-1 (Glut-1) mRNA", "setting": "[1]", "value": "induced"}, {"measurement": "number of CAMs showing angiogenesis", "setting": "[2]; 50 mM CPX, all 7 control CAMs lacked angiogenesis", "value": 10}, {"measurement": "CAM angiogenesis", "setting": "[2]; polymer discs containing 5 mM CPX", "value": "indistinguishable from the controls"}, {"measurement": "CAM angiogenesis", "setting": "[2]; polymer discs containing 50 mM CPX, two days of incubation", "value": "consistently induced CAM angiogenesis"}, {"measurement": "toxicity to the chick embryo", "setting": "[2]; polymer discs containing 500 mM CPX", "value": "toxic"}, {"measurement": "animals showing reddening of the wound margin", "setting": "NMRI mice", "value": "4 of 10"}, {"measurement": "reddening of the wound margin", "setting": "NMRI mice", "value": "can cause reddening"}, {"measurement": "angiogenesis in mouse skin wound model", "setting": "NMRI mice; ear holes of 2 mm diameter", "value": "can induce angiogenesis"}, {"measurement": "luciferase activity (1180 bp VEGF promoter fragment)", "setting": "VEGF promoter", "value": "dose-dependent increase"}, {"measurement": "albumin and sodium excretion rates", "setting": "isolated rat kidneys; [4]", "value": "strong increase"}, {"measurement": "kidney function", "setting": "isolated rat kidneys; [4]", "value": "down regulation"}, {"measurement": "Glut-1 mRNA level", "setting": "isolated rat kidneys; [5]", "value": "did not induce"}, {"measurement": "VEGF mRNA level", "setting": "isolated rat kidneys; [5]", "value": "did not induce"}, {"measurement": "aldolase mRNA level", "setting": "isolated rat kidneys; [5]", "value": "did not induce"}, {"measurement": "Glut-1 mRNA level under hypoxic perfusion", "setting": "isolated rat kidneys; perfusion with 3% oxygen for 3 hours plus CPX", "value": "not further elevated"}, {"measurement": "effectiveness against gram-positive and gram-negative bacteria", "setting": "[3]", "value": "effective"}, {"measurement": "reddening of experimentally wounded skin", "setting": "rabbit skin", "value": "persistent reddening"}, {"measurement": "reddening of healthy skin", "setting": "rabbit skin", "value": "occasionally transient reddening"}, {"measurement": "HIF-1α protein", "setting": "HIF-1α protein; 5 μM to 20 μM, normoxic HepG2 cells, after 6 and 24 hours of treatment", "value": "strongly induced"}, {"measurement": "HIF-1α levels, combination with hypoxia", "setting": "HIF-1α protein; after 6 hours", "value": "did not further increase"}, {"measurement": "HIF-1α levels, combination with hypoxia", "setting": "HIF-1α protein; after 24 hours of treatment", "value": "decreased"}, {"measurement": "VEGF protein in the supernatant", "setting": "VEGF protein", "value": "increased in a dose-dependent manner"}]}, {"smiles": "CC(=O)N(O)CCCCCNC(=O)CCC(=O)N(O)CCCCCNC(=O)CCC(=O)N(O)CCCCCN", "note": "[DFX, deferoxamine mesylate]", "values": [{"measurement": "kidney-specific erythropoietin expression", "setting": "HIF-1", "value": "can induce"}, {"measurement": "ubiquitous HIF-1 stability", "setting": "HIF-1", "value": "can induce"}, {"measurement": "expression of VEGF mRNA", "setting": "[1]", "value": "induced"}, {"measurement": "expression of aldolase mRNA", "setting": "[1]", "value": "induced"}, {"measurement": "expression of glucose transporter-1 (Glut-1) mRNA", "setting": "[1]", "value": "induced"}]}, {"smiles": "c1ccc(-c2ccccn2)nc1", "note": "[DP, 2,2′-dipyridyl]", "values": [{"measurement": "expression of VEGF mRNA", "setting": "[1]", "value": "induced"}, {"measurement": "expression of aldolase mRNA", "setting": "[1]", "value": "induced"}, {"measurement": "expression of glucose transporter-1 (Glut-1) mRNA", "setting": "[1]", "value": "induced"}]}]}
